This is an account of results in patent US20210100242A1, “FORMULATIONS FOR CONTROL AND REPELLENCY OF BITING ARTHROPODS” (BEDOUKIAN RESEARCH, INC., priority 2019, published 2021).

The test concerns Adult female Aedes aegypti. Description: Membrane feeder repellency test: mosquitoes probing treated collagen membranes over blood-filled wells. Type of test: in vivo. The note with it: Total repellent 0.30%. Here is the method: Adult female Aedes aegypti were obtained from the i2LResearch USA, Inc. colony. Two hundred fifty (250) mosquitoes were used per replicate (seven replicates). Mosquitoes were at least 6 days old and had been deprived of sucrose solution for at least 18 hours prior to testing.
An exposure container was used to present the mosquitoes with a choice of blood-filled wells that were covered with collagen membranes (3 cm in diameter). The collagen membranes were treated by pipetting 6.25 μl of the test treatment onto the appropriate membrane and spreading it evenly with the tip of the pipette.
Exposure container. A 30.5 cm×30.5 cm×30.5 cm container (rigid plastic frame and a sleeved entry on one side and a sliding trap door on the bottom). The container was supported by four (4 cm high) legs.
Membrane feeder. Five wells (3 cm in diameter x 8 mm in depth) in line on a hollow plastic block (6 cm wide x 22 cm long x 3 cm deep). The plastic block fit into the bottom of the exposure container. Hoses mounted on either end of the membrane feeder carried warm water that was pumped from a water bath. The sliding plastic trap door in the bottom of the exposure container covered and uncovered the wells in the membrane feeder, allowing mosquitoes to access the blood-filled wells that were covered with treated collagen membranes.
Study set-up. The membrane feeder was connected to a heated water bath, and warm water passed through the feeder via a circulating pump so that the wells were warmed to 96-100° F. Seventy-two (72) mg of ATP (disodium salt) were added to 26 ml of bovine blood. Sodium citrate was also added to the blood during collection to prevent clotting. The blood was poured into the wells until it completely filled each well (meniscus slightly above the level of the well).
Circular pieces (3 cm in diameter) of collagen membrane were placed over each of the wells. […]
Treatment and exposure to mosquitoes. […] The number of mosquitoes probing the membrane covering each well was recorded every two minutes for twenty minutes. […]
Turning to `CCN(CC)C(=O)c1cccc(C)c1` [DEET, N,N-diethyl-m-toluamide, reference compound], the “Test result, percentage relative to 0.3 wt % DEET in the same test” value turned out to be 100.0%. Consider `CC1CCC(C(C)(C)O)C(O)C1` (stereo not drawn) [PMD, para-menthane-3,8-diol, reference compound], for which the “Test result, percentage relative to 0.3 wt % DEET in the same test” value stood at 84.6%.

`CCNC(=O)C1CC(C)CCC1C(C)C` (stereo not drawn) [WS3, N-ethyl-p-menthane-3-carboxamide]: the “Test result, percentage relative to 0.3 wt % DEET in the same test” value was 130.0%.
